In US7332495B2 (priority 2002, dated 2008) one finds inhibition in vivo and melting point data, which are given here for 31 compounds.

Where a name gives a salt, the structure may show the parent alone.

For the first data set, the system named is Kunming mice. The data set is described as follows: Sedation: spontaneous activities recorded with alternating current tube. The note with it: Mus musculus, ip; i.p. 20 mg/Kg; spontaneous activities. Type of data set: in vivo. Here is the method: Kunming mice were used, with a male-female ratio of 50-50%. […] After 30 minutes, acetic acid (0.7%, […] i.p.) was injected and the number of writhes was observed during a 5-minute period after acetic acid administration. The inhibition ratio of the writhing threshold was calculated. The alternating current tube is used to record the spontaneous activities for measuring sedation.
Compound `CCC(c1ccccc1)N1CCN(CC(=O)c2ccccc2)CC1` (stereo not drawn) [IV-61, N^1-(1-phenylpropyl)-N^4-phenacyl piperazine] yielded an inhibition in vivo at 20 mg/kg of 56%. For `O=C(CN1CCN(Cc2ccc([N+](=O)[O-])cc2)CC1)NCc1ccccc1` [IV-62, N^1-(4-nitrobenzyl)-N^4-[2-(benzylamino)-2-oxo-ethyl]piperazine], the inhibition in vivo at 20 mg/kg came to 42%.

Tested on in the next data set: not given
Test: not given
Conditions: not given
`CC(C(=O)c1ccccc1)N1CCN(Cc2ccc(Cl)cc2)CC1` (stereo not drawn) (as salt: hydrochloride) returned a melting point of 260 to 262 °C. Take `COc1ccc2cc(C(=O)C(C)N3CCN(Cc4ccccc4)CC3)ccc2c1Cl` (stereo not drawn) (as salt: hydrochloride): the melting point was 252 to 253 °C (dec.). With `COc1ccc2cc(C(=O)C(C)N3CCN(Cc4ccc5c(c4)OCO5)CC3)ccc2c1Cl` (stereo not drawn) (as salt: hydrochloride), the melting point was in the range of 230 to 232 °C.

With `COc1ccc2cc(C(=O)C(C)N3CCN(Cc4ccc(N)cc4)CC3)ccc2c1Cl` (stereo not drawn) (as salt: hydrochloride), the melting point was in the range of 206 to 208 °C. On the same count and under the same terms, as for `COc1cc(CN2CCN(C(C)C(=O)c3ccc4c(Cl)c(OC)ccc4c3)CC2)cc(OC)c1OC` (stereo not drawn) (as salt: hydrochloride), the figure is 219 to 222 °C. `O=C(CN1CCN(Cc2ccccc2)CC1)c1ccccc1` (as salt: hydrochloride) [IV-1, N^1-benzyl-N^4-phenacyl piperazine] gave a melting point of 238 to 239 °C. On the same count and under the same terms, as for `O=C(CN1CCN(Cc2ccc(Cl)cc2)CC1)c1ccccc1` (as salt: hydrochloride) [IV-3, N^1-(4-chlorobenzyl)-N^4-phenacyl piperazine], the figure is 256 to 258 °C; as for `O=C(CN1CCN(Cc2ccc([N+](=O)[O-])cc2)CC1)c1ccccc1` (as salt: hydrochloride) [IV-4, N^1-(4-nitrobenzyl)-N^4-phenacyl piperazine], 236 to 238 °C; as for `O=C(CN1CCN(Cc2ccccc2)CC1)c1ccc(Cl)cc1` (as salt: hydrochloride) [IV-6, N^1-benzyl-N^4-(4-chlorophenacyl)piperazine], 231 to 233 °C. Take `O=C(CN1CCN(Cc2ccccc2)CC1)c1ccc2ccccc2c1` (as salt: hydrochloride) [IV-7, N^1-benzyl-N^4-(2-naphthoylmethyl)piperazine]: the melting point was 241 °C (dec.). Compound `COc1ccc(C(=O)CN2CCN(Cc3ccccc3)CC2)cc1` (as salt: hydrochloride) [IV-8, N^1-benzyl-N^4-(4-methoxyphenacyl)piperazine] gave a melting point of 228 to 230 °C.

For the compound `O=C(CN1CCN(Cc2ccccc2)CC1)c1ccc([N+](=O)[O-])cc1` (as salt: hydrochloride) [IV-9, N^1-benzyl-N^4-(4-nitrophenacyl)piperazine], the melting point lay in the range of 236 to 238 °C. As for `COc1ccc(CN2CCN(CC(=O)c3ccccc3)CC2)cc1` (as salt: hydrochloride) [IV-10, N^1-(4-methoxybenzyl)-N^4-phenacyl piperazine], the melting point is 222 to 224 °C. Take `O=C(CN1CCN(Cc2cccnc2)CC1)c1ccccc1` (as salt: hydrochloride) [IV-11, N^1-(3-pyridylmethyl)-N^4-phenacyl piperazine]: the melting point fell in the range of 225 to 226 °C.

Consider `CC(C(=O)c1ccccc1)N1CCN(Cc2ccc(N)cc2)CC1` (stereo not drawn) (as salt: hydrochloride) [IV-13, N^1-(4-aminobenzyl)-N^4-(1-benzoylethyl)piperazine], for which the melting point is 244 to 246 °C (dec.). Take `O=C(CN1CCN(CCc2ccccc2)CC1)c1ccccc1` (as salt: hydrochloride) [IV-14, N^1-phenethyl-N^4-phenacyl piperazine]: the melting point is 238 to 240 °C. In turn, `COc1ccc(OC)c(CN2CCN(CC(=O)c3ccccc3)CC2)c1` (as salt: hydrochloride) [IV-15, N^1-(2,5-dimethoxybenzyl)-N^4-phenacyl piperazine] came in with a melting point of 238 to 240 °C. `Nc1ccc(C(=O)CN2CCN(Cc3ccccc3)CC2)cc1` (as salt: hydrochloride) [IV-16, N^1-benzyl-N^4-(4-aminophenacyl)piperazine] gave a melting point of 286 to 288 °C.

Regarding `O=C(CCN1CCN(Cc2ccccc2)CC1)c1ccccc1` (as salt: hydrochloride) [IV-17, N^1-benzyl-N^4-(2-benzoylethyl)piperazine], the melting point is 230 to 232 °C. On to `CC(=O)Nc1ccc(C(=O)CN2CCN(Cc3ccc([N+](=O)[O-])cc3)CC2)cc1` (as salt: hydrochloride) [IV-18, N^1-(4-nitrobenzyl)-N^4-[(4-acetamido)phenacyl]piperazine], for which the melting point was in the range of 228 to 230 °C.

`O=C(CN1CCN(Cc2ccc3c(c2)OCO3)CC1)c1ccccc1` (as salt: hydrochloride) [IV-19, N^1-(3,4-methylenedioxybenzyl)-N^4-phenacyl piperazine] gave a melting point of 240 to 241 °C. For `O=C(CN1CCN(Cc2ccc(F)cc2)CC1)c1ccc(Cl)cc1` (as salt: hydrochloride) [IV-20, N^1-(4-fluorobenzyl)-N^4-(4-chlorophenacyl)piperazine], the melting point is 246 to 248 °C (dec.). `CC(=O)Nc1ccc(CN2CCN(CC(=O)c3ccccc3)CC2)cc1` (as salt: hydrochloride) [IV-21, N^1-(4-acetamidobenzyl)-N^4-phenacyl piperazine]: the melting point is 238 to 240 °C. As to `COc1ccc(CN2CCN(C(C)C(=O)c3ccc4c(Cl)c(OC)ccc4c3)CC2)cc1` (stereo not drawn) (as salt: hydrochloride) [IV-31, N^1-(4-methoxybenzyl)-N^4-[1-(5-chloro-6-methoxy-2-naphthoyl)ethyl]piperazine], the melting point was 222 to 224 °C. `CC(c1ccccc1)N1CCN(CC(=O)c2ccccc2)CC1` (stereo not drawn) (as salt: hydrochloride) [IV-37, N^1-(1-phenylethyl)-N^4-phenacyl piperazine]: the melting point is 242 °C (dec.).

`C[C@H](c1ccccc1)N1CCN(CC(=O)c2ccccc2)CC1` (as salt: hydrochloride) [IV-38, N^1—(R-1-phenylethyl)-N^4-phenacyl piperazine] registered a melting point of 230 to 232 °C. Same read-out and setting: as for `Cc1ccc(C(=O)CN2CCN(C(C)c3ccccc3)CC2)cc1` (stereo not drawn) (as salt: hydrochloride) [IV-40, N^1-(1-phenylethyl)-N^4-(4-methylphenacyl)piperazine], the figure is 230 to 232 °C; as for `Cc1ccc(C(=O)CN2CCN([C@H](C)c3ccccc3)CC2)cc1` (as salt: hydrochloride) [IV-41, N^1—(R-1-phenylethyl)-N^4-(4-methylphenacyl)piperazine], 231 to 232 °C. As to `COc1ccc2cc(C(=O)C(C)N3CCN(C(C)c4ccccc4)CC3)ccc2c1Cl` (stereo not drawn) (as salt: hydrochloride) [IV-43, N^1-(1-phenylethyl)-N^4-[1-(5-chloro-6-methoxy-2-naphthoyl)ethyl]piperazine], the melting point was 231 to 232 °C.

For the next data set, the system named is Kunming mice. The data set is described as follows: Mice writhing model (acetic acid). The format is in vivo. The note with it: Mus musculus, ip; i.p. 20 mg/Kg; acetic acid 0.7% i.p. after 30 minutes; writhes in 5 minutes; read-out: Analgesia (inhibition ratio of writhing). Here is the method: Kunming mice were used, with a male-female ratio of 50-50%. The test compound is administered i.p. (20 mg/Kg body weight) to the test groups, and physiological saline is administered P.O. (20 ml/Kg body weight) to the control group. After 30 minutes, acetic acid (0.7%, […] i.p.) was injected and the number of writhes was observed during a 5-minute period after acetic acid administration. The inhibition ratio of the writhing threshold was calculated. The alternating current tube is used to record the spontaneous activities for measuring sedation.
Two species of animals (mice and rats) and four types of pain testing models (i.p. 0.7% acetic acid, s.c. 5% formalin, hot plate 55° C., focused radiant heat) were used.
For orientation: Writhing tests count abdominal constrictions after an irritant is injected.
As to `CCC(c1ccccc1)N1CCN(CC(=O)c2ccccc2)CC1` (stereo not drawn) [IV-61, N^1-(1-phenylpropyl)-N^4-phenacyl piperazine], the inhibition in vivo at 20 mg/kg is 6%. `O=C(CN1CCN(Cc2ccc([N+](=O)[O-])cc2)CC1)NCc1ccccc1` [IV-62, N^1-(4-nitrobenzyl)-N^4-[2-(benzylamino)-2-oxo-ethyl]piperazine]: the inhibition in vivo at 20 mg/kg was 64%.

As usually defined, the melting point is the temperature of the solid-liquid transition.
